# Reference: article PMC8904451, “Novel chalcone-derived pyrazoles as potential therapeutic agents for the treatment of non-small cell lung cancer” (Scientific Reports, 2022)
# System: A-549 cells
# Experiment: Wound healing migration assay
# Assay type: cell-based, human
# Procedure: To further confirm the antimigratory potential of PCH-1, the wound healing assay was performed on A-549 cells. […] This effect was retained during the entire exposure time, with the highest difference during 18–24 h compared to that in the control group. Finally, the anti-migratory properties of PCH-1 were studied by co-treatment A-549 cells with TGF-β1.
# To analyze cell motility, A-549 cells were seeded onto the Ibidi-silicone insert on a cover glass-bottom 24-well plate for live cell imaging and incubated for 24 h. Subsequently, the inserts were dislodged, the cellular debris was removed by washing with RPMI, and the cells were incubated with different concentrations of PCH-1, and/or 2.5 ng/ml TGF-β1 (Sigma-Aldrich) in an imaging chamber (cellVivo incubation system, Olympus) at 37 °C with 5% CO2. Images were captured every 10 min for 20 or 42 h under × 10 magnification using a fluorescence microscope (IX83 Inverted Microscope, Olympus) connected to an XC50 digital color camera (Olympus). The percentage of wound closure was quantified with ImageJ software.
structure (smiles),measurement,setting,value
"COc1ccc(C2CC(c3cc4c(cc3OC)OCO4)=NN2C(C)=O)cc1 (centres unmarked) [PCH-1, 1-[3-(6-methoxy-2H-1,3-benzodioxol-5-yl)-5-(4-methoxyphenyl)-4,5-dihydro-1H-pyrazol-1-yl]ethan-1-one]",TGF-β1-induced cell motility (wound closure),"A-549 + 2.5 ng/ml TGF-β1, 5 µM and 10 µM, 20 h",the wound remained opened
same,cell migration (wound closure),"A-549, 10 and 15 µM",significantly reduced the migration of the cells
